From US10316017B2, “COT modulators and methods of use thereof” (Gilead Sciences, Inc., priority 2015, dated 2019)

What was measured:
[1] = tested on: TNFα production in LPS-stimulated human monocytes; assay: Cot Monocyte TNFα Cell Based Assay; details: Homo sapiens, Monocyte, TNFα in LPS-stimulated human monocytes; read-out: EC50 TNF
Procedure, shortened: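 TNFα release quantified by two-antibody TR-FRET, normalised to unstimulated (0%) and LPS-stimulated (100%) wells. Cells got a 1 h compound exposure at 37° C in 0.5% DMSO before 4 h challenge with 50 pg/ml LPS, at 5,000 cells/well.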

[2] = biological target: T1, human Cot catalytic domain (30-397 amino acids) (Homo sapiens, UniProt P41279); assay: High Throughput Cot Biochemical Assay (KinEASE TR-FRET); details: Cot biochemical HTRF (KinEASE TR-FRET) assay; read-out: IC50 HTRF
T1 construct: Purified recombinant human Cot catalytic domain (30-397 amino acids) was purchased from Cama Biosciences; purchased Cama Biosciences (so in the source)
T1 sequence (P41279 30-397): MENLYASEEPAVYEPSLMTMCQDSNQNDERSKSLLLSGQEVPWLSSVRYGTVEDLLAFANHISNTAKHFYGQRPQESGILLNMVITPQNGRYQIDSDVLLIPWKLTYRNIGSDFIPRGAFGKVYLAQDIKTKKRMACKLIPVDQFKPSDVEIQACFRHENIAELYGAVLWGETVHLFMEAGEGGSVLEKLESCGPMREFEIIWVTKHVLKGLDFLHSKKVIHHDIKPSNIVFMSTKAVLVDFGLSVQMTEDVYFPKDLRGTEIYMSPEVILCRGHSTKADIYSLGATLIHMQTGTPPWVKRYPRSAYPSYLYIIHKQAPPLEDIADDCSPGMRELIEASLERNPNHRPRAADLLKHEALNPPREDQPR
Procedure, shortened: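 TR-FRET (KinEASE) read-out: Eu-labelled phospho-specific antibody binds XL665-tagged STK3 peptide (1 μM) phosphorylated by 5 nM human Cot kinase domain (residues 30-397). Reaction at 400 μM ATP, pH 7.0 MOPS buffer with 10 mM MgOAc, 1 mM DTT and 0.1% DMSO.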

| EC50 [1] [nM] | IC50 [2] [nM] | SMILES |
| --- | --- | --- |
| 713 | 8 | CC(C)n1cc([C@@H](Nc2cc(Cl)c3ncc(C#N)c(N[C@H](C)c4ccccc4)c3c2)c2cccc(C(=O)N(C)C)c2)nn1 [Example 579, 3-((S)-((8-chloro-3-cyano-4-(((R)-1-phenylethyl)amino)quinolin-6-yl)amino)(1-isopropyl-1H-1,2,3-triazol-4-yl)methyl)-N,N-dimethylbenzamide] |
| 1590 | 287 | CC(C)(C)N1CCC(n2cc([C@@H](Nc3cc(Cl)c4ncc(C#N)c(NN5CCOCC5)c4c3)c3ccccc3)nn2)CC1 [Example 580, (S)-6-(((1-(1-(tert-butyl)piperidin-4-yl)-1H-1,2,3-triazol-4-yl)(phenyl)methyl)amino)-8-chloro-4-(morpholinoamino)quinoline-3-carbonitrile] |
| 4220 | 333 | CC(C)(C)N1CCC(n2cc([C@@H](Nc3cc(Cl)c4ncc(C#N)c(N[C@H]5CCc6ccccc65)c4c3)c3ccccc3)nn2)CC1 [Example 581, 6-(((S)-(1-(1-(tert-butyl)piperidin-4-yl)-1H-1,2,3-triazol-4-yl)(phenyl)methyl)amino)-8-chloro-4-(((S)-2,3-dihydro-1H-inden-1-yl)amino)quinoline-3-carbonitrile] |
| 4360 | 1000 | CC(C)(C)N1CCC(n2cc([C@@H](Nc3cc(Cl)c4ncc(C#N)c(N[C@@H]5CCc6ccccc65)c4c3)c3ccccc3)nn2)CC1 [Example 583, 6-(((S)-(1-(1-(tert-butyl)piperidin-4-yl)-1H-1,2,3-triazol-4-yl)(phenyl)methyl)amino)-8-chloro-4-(((R)-2,3-dihydro-1H-inden-1-yl)amino)quinoline-3-carbonitrile] |
| 403 | 10 | CC(C)(C)N1CCC(n2cc([C@@H](Nc3cc(Cl)c4ncc(C#N)c(Nc5cnc(F)c(F)c5)c4c3)c3ccccc3)nn2)CC1 [Example 584, (S)-6-(((1-(1-(tert-butyl)piperidin-4-yl)-1H-1,2,3-triazol-4-yl)(phenyl)methyl)amino)-8-chloro-4-((5,6-difluoropyridin-3-yl)amino)quinoline-3-carbonitrile] |
| 427 | 16 | Cc1ccccc1[C@@H](C)Nc1c(C#N)cnc2c(Cl)cc(N[C@@H](c3ccccc3)c3cn(C4CCN(C(C)(C)C)CC4)nn3)cc12 [Example 585, 6-(((S)-(1-(1-(tert-butyl)piperidin-4-yl)-1H-1,2,3-triazol-4-yl)(phenyl)methyl)amino)-8-chloro-4-(((R)-1-(o-tolyl)ethyl)amino)quinoline-3-carbonitrile] |
| 8560 | 892 | CC[C@H](C)Nc1c(C#N)cnc2c(Cl)cc(N[C@@H](c3ccccc3)c3cn(C(C)C)nn3)cc12 [Example 586, 4-(((S)-sec-butyl)amino)-8-chloro-6-(((S)-(1-isopropyl-1H-1,2,3-triazol-4-yl)(phenyl)methyl)amino) quinoline-3-carbonitrile] |
| 3900 | 144 | CC[C@H](C)Nc1c(C#N)cnc2c(Cl)cc(N[C@@H](c3ccccc3)c3cn(C4CCN(C(C)(C)C)CC4)nn3)cc12 [Example 587, 4-(((S)-sec-butyl)amino)-6-(((S)-(1-(1-(tert-butyl)piperidin-4-yl)-1H-1,2,3-triazol-4-yl)(phenyl)methyl)amino)-8-chloroquinoline-3-carbonitrile] |
| 1020 | 17 | CC(C)n1cc([C@@H](Nc2cc(Cl)c3ncc(C#N)c(N[C@H](C)c4ccccc4)c3c2)c2ccccc2)nn1 [Example 588, 8-chloro-6-(((S)-(1-isopropyl-1H-1,2,3-triazol-4-yl)(phenyl)methyl)amino)-4-(((R)-1-phenylethyl)amino) quinoline-3-carbonitrile] |
| 8440 | 480 | CC[C@@H](C)Nc1c(C#N)cnc2c(Cl)cc(N[C@@H](c3ccccc3)c3cn(C(C)C)nn3)cc12 [Example 589, 4-(((R)-sec-butyl)amino)-8-chloro-6-(((S)-(1-isopropyl-1H-1,2,3-triazol-4-yl)(phenyl)methyl)amino)quinoline-3-carbonitrile] |
| 3520 | 131 | CC[C@@H](C)Nc1c(C#N)cnc2c(Cl)cc(N[C@@H](c3ccccc3)c3cn(C4CCN(C(C)(C)C)CC4)nn3)cc12 [Example 590, 4-(((R)-sec-butyl)amino)-6-(((S)-(1-(1-(tert-butyl)piperidin-4-yl)-1H-1,2,3-triazol-4-yl)(phenyl)methyl)amino)-8-chloroquinoline-3-carbonitrile] |
| 713 | 27 | CC(C)n1cc([C@@H](Nc2cc(Cl)c3ncc(C#N)c(Nc4cccc(Cl)c4F)c3c2)c2ccccc2)nn1 [Example 591, (S)-8-chloro-4-((3-chloro-2-fluorophenyl)amino)-6-(((1-isopropyl-1H-1,2,3-triazol-4-yl)(phenyl)methyl)amino) quinoline-3-carbonitrile] |
| 352 | 7 | CC[C@@H](Nc1c(C#N)cnc2c(Cl)cc(N[C@@H](c3ccccc3)c3cn(C(C)C)nn3)cc12)c1ccccc1 [Example 592, 8-chloro-6-(((S)-(1-isopropyl-1H-1,2,3-triazol-4-yl)(phenyl)methyl)amino)-4-(((R)-1-phenylpropyl)amino)quinoline-3-carbonitrile] |
| 147 | 1 | CC1CCN1C(=O)c1cccc([C@H](Nc2cc(Cl)c3ncc(C#N)c(Nc4ccc(F)c(Cl)c4)c3c2)c2cn(C3CCN(C(C)(C)C)CC3)nn2)c1 (stereo partly drawn) [Example 593, 6-(((1S)-(1-(1-(tert-butyl)piperidin-4-yl)-1H-1,2,3-triazol-4-yl)(3-(2-methylazetidine-1-carbonyl)phenyl)methyl)amino)-8-chloro-4-((3-chloro-4-fluorophenyl)amino)quinoline-3-carbonitrile] |
| 1720 | 1 | CC(C)(C)N1CCC(n2cc([C@@H](Nc3cc(Cl)c4ncc(C#N)c(Nc5ccc(F)c(Cl)c5)c4c3)c3cccc(C(=O)N4CC(O)C4)c3)nn2)CC1 [Example 594, (S)-6-(((1-(1-(tert-butyl)piperidin-4-yl)-1H-1,2,3-triazol-4-yl)(3-(3-hydroxyazetidine-1-carbonyl)phenyl)methyl)amino)-8-chloro-4-((3-chloro-4-fluorophenyl)amino)quinoline-3-carbonitrile] |
| 305 | 8 | CN(C)c1cccc([C@H](Nc2cc(Cl)c3ncc(C#N)c(Nc4ccc(F)c(Cl)c4)c3c2)c2cn(C3CCN(C(C)(C)C)CC3)nn2)c1 [Example 595, (S)-6-(((1-(1-(tert-butyl)piperidin-4-yl)-1H-1,2,3-triazol-4-yl)(3-(dimethylamino)phenyl)methyl)amino)-8-chloro-4-((3-chloro-4-fluorophenyl)amino)quinoline-3-carbonitrile] |
| 3050 | 33 | CC(C)(C)N1CCC(n2cc([C@@H](Nc3cc(Cl)c4ncc(C#N)c(NC5CC6CCC5C6)c4c3)c3ccccc3)nn2)CC1 (stereo partly drawn) [Example 596, 4-(bicyclo[2.2.1]heptan-2-ylamino)-6-(((S)-(1-(1-(tert-butyl)piperidin-4-yl)-1H-1,2,3-triazol-4-yl)(phenyl)methyl)amino)-8-chloroquinoline-3-carbonitrile] |
| 3180 | 189 | CC(C)(C)N1CCC(n2cc(C(Nc3cc(Cl)c4ncc(C#N)c(NC5CCC(O)CC5)c4c3)c3ccccc3)nn2)CC1 [Example 597, 6-(((S)-(1-(1-(tert-butyl)piperidin-4-yl)-1H-1,2,3-triazol-4-yl)(phenyl)methyl)amino)-8-chloro-4-(((1r,4S)-4-hydroxycyclohexyl)amino) quinoline-3-carbonitrile] |
| 418 | 4 | CC[C@@H](Nc1c(C#N)cnc2c(Cl)cc(N[C@@H](c3cccc(C(=O)N(C)C)c3)c3c[nH]nn3)cc12)c1ccccc1 [Example 598, 3-((S)-((8-chloro-3-cyano-4-(((R)-1-phenylpropyl)amino)quinolin-6-yl)amino)(1H-1,2,3-triazol-4-yl)methyl)-N,N-dimethylbenzamide] |
| 134 | 3 | CC[C@@H](Nc1c(C#N)cnc2c(Cl)cc(N[C@@H](c3cccc(C(=O)N(C)C)c3)c3cn(C(C)C)nn3)cc12)c1ccccc1 [Example 599, 3-((S)-((8-chloro-3-cyano-4-(((R)-1-phenylpropyl)amino)quinolin-6-yl)amino)(1-isopropyl-1H-1,2,3-triazol-4-yl)methyl)-N,N-dimethylbenzamide] |
| 78 | 2 | CC[C@@H](Nc1c(C#N)cnc2c(Cl)cc(N[C@@H](c3cccc(C(=O)N(C)C)c3)c3cn(C4CCN(C(C)(C)C)CC4)nn3)cc12)c1ccccc1 [Example 600, 3-((S)-(1-(1-(tert-butyl)piperidin-4-yl)-1H-1,2,3-triazol-4-yl)((8-chloro-3-cyano-4-(((R)-1-phenylpropyl)amino)quinolin-6-yl)amino)methyl)-N,N-dimethylbenzamide] |
| 2060 | 64 | CC(C)(C)N1CCC(n2cc([C@@H](Nc3cc(Cl)c4ncc(C#N)c(NCC5CCOCC5)c4c3)c3ccccc3)nn2)CC1 [Example 601, (S)-6-(((1-(1-(tert-butyl)piperidin-4-yl)-1H-1,2,3-triazol-4-yl)(phenyl)methyl)amino)-8-chloro-4-(((tetrahydro-2H-pyran-4-yl)methyl)amino)quinoline-3-carbonitrile] |
